Reference: US6576639B1, “Compounds for the inhibition of farnesyl protein transferase” (Schering Corporation, priority 1997, dated 2003)
pIC50: −log10 of the molar value. Values belong to the compound of their own block, whether it stands above or below them.

Columns and labels:
[1] = molecular target: farnesyl protein transferase (Homo sapiens, UniProt P49354+P49356); assay: FPT IC50 (inhibition of farnesyl protein transferase, in vitro enzyme assay, per WO 95/10516); type: biochemical; conditions: for pIC50: in vitro enzyme assay
Chain of farnesyl protein transferase (P49356 whole entry, one chain of several): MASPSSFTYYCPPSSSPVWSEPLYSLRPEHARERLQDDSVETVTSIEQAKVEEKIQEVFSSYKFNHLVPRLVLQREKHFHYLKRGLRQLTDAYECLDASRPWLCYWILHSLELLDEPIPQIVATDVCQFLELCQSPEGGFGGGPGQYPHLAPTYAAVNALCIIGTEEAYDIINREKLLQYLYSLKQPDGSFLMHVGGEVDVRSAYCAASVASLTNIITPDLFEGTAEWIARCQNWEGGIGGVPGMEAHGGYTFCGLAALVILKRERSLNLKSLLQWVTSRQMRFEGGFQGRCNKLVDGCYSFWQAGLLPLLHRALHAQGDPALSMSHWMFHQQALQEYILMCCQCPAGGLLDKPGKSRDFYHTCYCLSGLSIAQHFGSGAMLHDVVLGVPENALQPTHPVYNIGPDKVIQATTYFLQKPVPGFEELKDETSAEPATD
Experimental: (§1) FPT IC50 (inhibition of farnesyl protein transferase, in vitro enzyme assay) was determined following the assay procedures described in WO 95/10516, published Apr. 20, 1995. GGPT IC50 (inhibition of geranylgeranyl protein transferase, in vitro enzyme assay), COS Cell IC50 (Cell-Based Assay), Cell Mat Assay, and anti-tumor activity (in vivo anti-tumor studies) could be determined by the assay procedures described in WO 95/10516. The disclosure of WO 95/10516 is incorporated herein by reference thereto.

[2] = tested on: COS Cell; assay: COS Cell IC50 (Cell-Based Assay, per WO 95/10516)
Experimental: as §1

[3] = tested on: Human tumor cells; assay: Soft Agar Assay (anchorage-independent growth); type: cell-based
Experimental: Anchorage-independent growth is a characteristic of tumorigenic cell lines. Human tumor cells can be suspended in growth medium containing 0.3% agarose and an indicated concentration of a farnesyl transferase inhibitor. The solution can be overlayed onto growth medium solidified with 0.6% agarose containing the same concentration of farnesyl transferase inhibitor as the top layer. After the top layer is solidified, plates can be incubated for 10-16 days at 37° C. under 5% CO2 to allow colony outgrowth. After incubation, the colonies can be stained by overlaying the agar with a solution of MTT (3-[4,5-dimethyl-thiazol-2-yl]-2,5-diphenyltetrazolium bromide, Thiazolyl blue) (1 mg/mL in PBS). Colonies can be counted and the IC50's can be determined.

[4] = molecular target: T1, human FPT (Homo sapiens, UniProt P49354+P49356); assay: FPT pM IC50 Assay; type: biochemical; conditions: 30 pM human FPT, biotin-CVLS substrate, 37° C., 1 hour
T1 construct: made in house; host or cells: Baculovirus/Sf-9
Experimental: The enzymatic reaction is performed in 50 mM Tris, 5 μM ZnCl2, 5 mM MgCl2, 0.01% Triton X-100, 5 mM dithiolthreitol (DTT), pH 7.7 (Buffer R) at 37° C. for 1 hour. The purified human FPT (>95% pure) was derived from a Baculovirus/Sf-9 expression system. The peptide substrate used was biotin-CVLS (SynPep Corp., Dublin, Calif.) and (1-^3H)-FPP (21.5 Ci/mmol) was obtained from New England Nuclear Life Science Products (Boston, Mass.). Compounds were initially dissolved to a final concentration of 4 mg/ml in 100% DMSO and then to 0.25 μg/ml in 100% DMSO. Subsequent dilutions of the compound were performed in Buffer R.
The enzymatic reaction is performed in a final volume of 100 μl. Reactions are carried out in a 96 well plate format. […] The reaction is stopped using 150 μl of the Stop Solution consisting of 1.3 mg/ml scintillation beads (strepavidin-coated scintillation proximity beads from Amersham (Arlington Heights, Ill.), 250 mM EDTA, pH 8.0 and 0.5% BSA. The radioactivity is measured after 20 minutes at room temperature.
Compounds are evaluated for their ability to inhibit the reaction by measuring the concentration-dependent percent inhibition of the reaction. […] The enzymatic activity was recorded by measuring the CPM/well using a Wallac 1204 Betaplate BS liquid scintillation counter. […]

Compound: O=C(Cc1cc[n+]([O-])cc1)N1CCC(C2c3ccc(Cl)cc3C=Cc3cc(Br)c[n+]([O-])c32)CC1 (centres unmarked) [Example 6, 4-(3-Bromo-8-Chloro-11H-Benzo[5.6]Cyclohepta[1,2-b]Pyridi-11-yl) -1-(4-Pyridinylacetyl)Piperidine N1-Oxide, N4-Oxide]
pIC50 [1]: 7.20

Compound: O=C(Cc1cc[n+]([O-])cc1)N1CCC([C@H]2c3ccc(Cl)cc3C=Cc3cc(Br)c[n+]([O-])c32)CC1 [Example 14]
melting point: 109 to 110 °C | FPT percent inhibition ([1]; @ 180 (concentration unit not given)): 25% @ 180

Compound: O=C(Cc1cc[n+]([O-])cc1)N1CCC([C@@H]2c3ccc(Cl)cc3C=Cc3cc(Br)c[n+]([O-])c32)CC1 [Example 15]
melting point: 125.5 to 126.3 °C | pIC50 [1]: 7.72

Compound: O=C(Cc1cc[n+]([O-])cc1)N1CCC([C@H]2c3ccc(Cl)c(Br)c3CCc3cc(Br)c[n+]([O-])c32)CC1 [Example 5, (−)-4-(8-Chloro-3,7-Dibromo-6,11-Dihydro-5H-Benzo[5,6]Cyclohepta [1,2-b]Pyridin-11-yl)-1-(4-Pyridinylacetyl)Piperidine N1-Oxide, N4-Oxide]
pIC50 [1]: 7.55

Compound: O=C(Cc1cc[n+]([O-])cc1)N1CCN([C@H]2c3ccc(Cl)cc3CCc3cc(Br)c[n+]([O-])c32)CC1 [Example 8]
FPT percent inhibition ([1]; @ 170 (concentration unit not given)): 39% @ 170

Compound: O=C(Cc1cc[n+]([O-])cc1)N1CCN([C@@H]2c3ccc(Cl)cc3CCc3cc(Br)c[n+]([O-])c32)CC1 [Example 7]
IC50 [4]: 440 pM | pIC50 [2]: 7.07 | pIC50 [3]: 6.74 | pIC50 [1]: 8.20

Continued, in another order:

pIC50 [1]: 7.74
Compound: NC(=O)N1CCC(CC(=O)N2CCC([C@H]3c4ccc(Cl)c(Br)c4CCc4cc(Br)c[n+]([O-])c43)CC2)CC1 [Example 4]

pIC50 [3]: 7.60 | pIC50 [1]: 9.15
Compound: O=C(Cc1cc[n+]([O-])cc1)N1CCC([C@@H]2c3c(Br)cc(Cl)cc3CCc3cc(Br)c[n+]([O-])c32)CC1 [Example 3]
pIC50 [2]: 7.94

FPT percent inhibition ([1]; @150 nM): 42%
Compound: NC(=O)N1CCC(CC(=O)N2CCC(C3c4c(Br)cc(Cl)cc4CCc4cc(Br)c[n+]([O-])c43)CC2)CC1 (centres unmarked) [Compound 54.0]

pIC50 [1]: 7.64
Compound: NC(=O)N1CCC(CC(=O)N2CCN(C3c4ccc(Cl)cc4CCc4cc(Br)c[n+]([O-])c43)CC2)CC1 (racemic) [Example 9, (±) 4-[2-[(3-Bromo-8-chloro-6,11-dihydro-5H-benzo[5,6]cyclohepta [1,2-b]pyridin-11-yl)-1-piperazinyl]-2-oxoethyl]-1-piperidinecarboxamide N1-oxide]

FPT percent inhibition ([1]; @ 160 (concentration unit not given)): 24% @ 160
Compound: NC(=O)N1CCC(CC(=O)N2CCN([C@H]3c4ccc(Cl)cc4CCc4cc(Br)c[n+]([O-])c43)CC2)CC1 [Example 11, (−) 4-[2-[(3-Bromo-8-chloro-6,11-dihydro-5H-benzo[5,6]cyclo-hepta [1,2-b]pyridin-11S-yl)-1-piperazinyl]-2-oxoethyl]-1-piperidinecarboxamide N1-oxide]

pIC50 [3]: 7.35 | pIC50 [1]: 8.85
Compound: NC(=O)N1CCC(CC(=O)N2CCC([C@@H]3c4c(Br)cc(Cl)cc4CCc4cc(Br)c[n+]([O-])c43)CC2)CC1 [Example 2, (+)-4-[2-[4-(3,10-Dibromo-8-chloro-6,11-dihydro-5H-benzo [5,6]cyclohepta[1,2-b]pyridin-11(R)-YL)-1-piperidinyl]-2-oxoethyl]-1-piperidinecarboxamide N-oxide]
pIC50 [2]: 8.05

melting point: 120 to 121 °C | pIC50 [1]: 6.76
Compound: NC(=O)N1CCC(CC(=O)N2CCC([C@H]3c4ccc(Cl)cc4CCc4cc(Br)c[n+]([O-])c43)CC2)CC1 [Example 13]

melting point: 146.8 to 147.4 °C | pIC50 [1]: 7.46
Compound: NC(=O)N1CCC(CC(=O)N2CCC([C@@H]3c4ccc(Cl)cc4CCc4cc(Br)c[n+]([O-])c43)CC2)CC1 [Example 12]

pIC50 [1]: 7.92
Compound: NC(=O)N1CCC(CC(=O)N2CCN([C@@H]3c4ccc(Cl)cc4CCc4cc(Br)c[n+]([O-])c43)CC2)CC1 [Example 10, (+) 4-[2-[(3-Bromo-8-chloro-6,11-dihydro-5H-benzo[5,6]cyclo-hepta [1,2-b]pyridin-11R-yl)-1-piperazinyl]-2-oxoethyl]-1-piperidinecarboxamide N1-oxide]
